Laboratory results as given in publication PMC7395062, “Multiparametric assessment of mitochondrial respiratory inhibition in HepG2 and RPTEC/TERT1 cells using a panel of mitochondrial targeting agrochemicals” (Archives of Toxicology, 2020).
Read-outs that look alike come from different tables or passages of the source.

Legend:
RPTEC/TERT1 cells [1] = experiment: Resazurin reduction viability assay, RPTEC/TERT1; format: cell-based, human
Procedure: These cells were obtained under licence from Evercyte GmBH, Vienna Austria. […] For experiments, cells were plated in a required format plate, allowed to become contact-inhibited and fed 24 h prior to treatment exposure. For experiments in galactose condition, cells were fed 24 h prior to experiment with culture medium (custom made DMEM/F12, PromoCell) in which 5 mM glucose was replaced with 5 mM galactose (Merck, G5388).
(§1) The conversion of resazurin to fluorescent resorufin was measured in a plate reader at excitation/emission 540/590 nm.
(§2) All results are average of 2–3 independent experiments.

HepG2 cells [2] = experiment: Resazurin reduction viability assay, 2D HepG2; format: cell-based, human; details: HepG2, galactose
Procedure: The HepG2 cell line, a human hepatocellular carcinoma, was obtained from ATCC (American Type Culture Collection, Wesel, Germany). […] Cells were maintained at 37 °C in a 5% CO2 humidified atmosphere, fed every 2 to 3 days and passaged at approximately 80% confluence. […] For galactose experiments, the medium was refreshed 24 h before exposure with galactose-containing medium. […] Culture medium was refreshed every 3–4 days and the culture was maintained for 21 days prior to dosing.
as §1, §2

HepG2 cells [3] = experiment: Cell death (PI staining) in 2D HepG2 by live confocal imaging; format: cell-based, human
Procedure: After 1 h incubation at 37° C, the medium was removed and 25 μL complete DMEM containing 0.2 μM Rho123 and 100 nM propidium iodide (PI) (Merck, P4170) was added, followed by 25 μL of medium containing 2×, the desired concentration of test compound. […] The confocal imaging was performed using a Nikon TiE2000 with perfect focus system and xy-stage (Nikon, Amsterdam, The Netherlands). Quantification of the Hoechst, Rho123 and PI signal intensity and localization were performed using CellProfiler version 2.1.1 (Broad Institute, Cambridge, USA). […] The PI-positive nuclei were identified by masking the previous segmented nuclei and the PI signal. More than 10% overlap was considered as PI positive. All CellProfiler analyses were stored as HDF5 files. The combination of an internally developed R script, run in Rstudio (Boston, USA), was used for data extraction including Rho123 signal intensity, fraction PI positive and nuclear count.
as §2

HepG2 cells [4] = experiment: Mitochondrial membrane potential (Rho123) live confocal imaging; format: cell-based, human; details: HepG2, Rho123, 24 h
Procedure: Rhodamine 123 (Rho123) (Merck, R8004) was used in a live confocal imaging setting for the assessment of effects at MMP. Rho123 localises to mitochondria and the decline in fluorescence is proportional to a decrease in MMP (Johnson et al. [1980], [1981]). HepG2 were seeded at 10,000 cells/30 μL/well in a 384-wells μCLEAR® black plate (Greiner Bio-One, 781 091). Two days post-seeding, 30 μL complete HepG2 culture medium, containing 200 ng/μL Hoechst 33342 (Life technologies, H1399) and 1 μM Rho123, was added to the medium. After 1 h incubation at 37° C, the medium was removed and 25 μL complete DMEM containing 0.2 μM Rho123 and 100 nM propidium iodide (PI) (Merck, P4170) was added, followed by 25 μL of medium containing 2×, the desired concentration of test compound. The intensity of Hoechst, Rho123 and PI, was monitored using live confocal imaging for 24 h using the 408, 488 and 561 nm laser, respectively. The confocal imaging was performed using a Nikon TiE2000 with perfect focus system and xy-stage (Nikon, Amsterdam, The Netherlands). Quantification of the Hoechst, Rho123 and PI signal intensity and localization were performed using CellProfiler version 2.1.1 (Broad Institute, Cambridge, USA). The nuclear identification based on the Hoechst signal was performed using an internally created segmentation module (Di et al. [2012]), followed by a cytoplasmic identification based on a specific distance from these nuclei. The PI-positive nuclei were identified by masking the previous segmented nuclei and the PI signal. More than 10% overlap was considered as PI positive. All CellProfiler analyses were stored as HDF5 files. The combination of an internally developed R script, run in Rstudio (Boston, USA), was used for data extraction including Rho123 signal intensity, fraction PI positive and nuclear count.
(§3) All results are average of 2–3 independent experiments. […] Leist, University of Konstanz (Krebs et al. [2020]).

RPTEC/TERT1 cells [5] = experiment: Seahorse mitostress assay in intact cells (OCR/ECAR), RPTEC/TERT1; format: cell-based, human
Procedure: The Seahorse bioanalyzer simultaneously measures cellular oxygen consumption rates (OCR) and extracellular acidification rates (ECAR). The mitostress assay utilises a sequential addition of modulators of the oxidative phosphorylation to assess key parameters of mitochondrial function. […] It is worth noting here that RPTEC/TERT1 require longer differentiation time in the Seahorse plates, potentially due to sub-optimum gas exchange in the Seahorse culture plates. HepG2 cells were cultured at the density of 15,000 cells/well on collagen-coated (2.5 µg/µL collagen IV, Merck, C7521) Seahorse cell culture microplates two days prior to analysis.
The mitostress test was performed as described (Eakins et al. [2016]; Tilmant et al. [2018]). Immediately before the assay, cell culture medium was replaced with 180 µL of Seahorse XF Base Medium without phenol red (Agilent, 1003335-100), supplemented with 10 mM D-glucose (Merck, G7021), 5 mM HEPES (Merck, H4034), 2 mM sodium pyruvate (Merck, P5281) and 1 mM L-glutamine (Merck, G8540). Cells were allowed to equilibrate for 45 min in a non-CO2 37 °C incubator. […] OCR was measured five times after test compound injection and three times for all injections. Each measurement consisted of a 3 min mix and subsequent 3 min read cycle. […]

RPTEC/TERT1 cells [6] = experiment: Mitochondrial membrane potential (MMP) assay with JC-1; format: cell-based, human; details: RPTEC/TERT1, JC-1, 24 h
Procedure: JC-1 is a single-excitation dual-emission fluorescence-based assay that allows for ratiometric semiquantitative assessment of mitochondrial membrane potential (Perry et al. [2011]). For quantification of changes in MMP cells were pre-loaded, for approximately 1.5 h, with the JC-1 pre-loading solution containing 9 µM JC-1 (Invitrogen, 65-0851-38), 9 µL/mL Pluronic F-127 10% in water (Invitrogen, P6866) and 5 µM Cyclosporine A (CsA) (Merck, 30024), a P-glycoprotein (P-gp) inhibitor, to prevent dye extrusion due to the expression of efflux pumps in RPTEC/TERT1 cell line. After this incubation time, cells were washed and exposed to test compounds dissolved in a JC-1 treatment solution containing 0.5 µM JC-1, 1.5 µL/mL Pluronic F-127 and 1 µM CsA for the desired time. We have previously determined that CsA at up to 5 µM has no adverse effect on RPTEC/TERT1 cells for up to 14 days (Wilmes et al. [2013]). Fluorescence was measured in a plate reader at excitation 492 nm and dual emission, 535 nm for monomers and 590 nm for dimers. Results are presented as the dimer/monomer ratio and expressed as percentage of untreated samples.
as §3

[7] = system: CII/CIII (succinate dehydrogenase / cytochrome bc1 complex); format: cell-based, human; details: permeabilised HepG2; sequential substrates/inhibitors
Procedure: The test compound is injected and OCR is measured. […] OCR is measured for the second time. […] A third and final OCR measurement is conducted.
Compounds were injected sequentially and OCR was measured twice. […] ETC inhibition is determined in decreased OCR.
as §2

HepG2 cells [8] = experiment: Seahorse mitostress assay in intact cells (OCR/ECAR), HepG2; details: seen at 2 and 10 µM

Cc1nn(C)c(Oc2ccccc2)c1C=NOCc1ccc(C(=O)OC(C)(C)C)cc1 [Fenpyroximate]
Statistical significance, Viability Glucose settings Resazurin (RPTEC/TERT1 cells [1]): * (*p < 0.05 (Tables 3, 4)) | Statistical significance, Viability Galactose settings Resazurin (RPTEC/TERT1 cells [1]; RPTEC/TERT1, e = 0.08 µM): * (*p < 0.05 (Tables 3, 4)) | Statistical significance, Viability Galactose settings Resazurin (RPTEC/TERT1 cells [1]; RPTEC/TERT1, g = 7 µM): * (*p < 0.05 (Tables 3, 4)) | Statistical significance, Viability Galactose settings Resazurin (RPTEC/TERT1 cells [1]; RPTEC/TERT1, h = 10 µM): * (*p < 0.05 (Tables 3, 4)) | Statistical significance, Viability Glucose settings Resazurin (RPTEC/TERT1 cells [1]; RPTEC/TERT1, glucose, g = 7 µM): * (*p < 0.05 (Tables 3, 4)) | Statistical significance, Viability Glucose settings Resazurin (RPTEC/TERT1 cells [1]; RPTEC/TERT1, glucose, h = 10 µM): * (*p < 0.05 (Tables 3, 4)) | Statistical significance, Viability Galactose settings Resazurin (HepG2 cells [2]; d = 0.016 µM): * (*p < 0.05 (Tables 3, 4)) | Statistical significance, Viability Galactose settings Resazurin (HepG2 cells [2]; e = 0.08 µM): * (*p < 0.05 (Tables 3, 4)) | Statistical significance, Viability Galactose settings Resazurin (HepG2 cells [2]; g = 7 µM): * (*p < 0.05 (Tables 3, 4)) | Statistical significance, Viability Galactose settings Resazurin (HepG2 cells [2]; h = 10 µM): * (*p < 0.05 (Tables 3, 4)) | Statistical significance, Cell death (% 24h) Galactose (HepG2 cells [3]): * (*p < 0.05 (Tables 3, 4))

Cc1nc(C(F)(F)F)c(C(=O)Nc2c(Br)cc(OC(F)(F)F)cc2Br)s1 [Thifluzamide]
Statistical significance, Viability Galactose settings Resazurin (HepG2 cells [2]; h = 10 µM): * (*p < 0.05 (Tables 3, 4)) | Effect on MMP (HepG2 cells [4]): decreased MMP, but only at the highest concentrations | Effect on maximal respiration (RPTEC/TERT1 cells [5]; RPTEC/TERT1, higher concentrations): tendency to increase maximal respiration

Cc1ccccc1C(=O)Nc1cccc(OC(C)C)c1 [Mepronil]
Effect on MMP (RPTEC/TERT1 cells [6]): actually increased it | Effect on MMP (HepG2 cells [4]): decreased MMP, but only at the highest concentrations

Cc1ccc(-c2c(Cl)nc(C#N)n2S(=O)(=O)N(C)C)cc1 [Cyazofamid]
Statistical significance, Viability Galactose settings Resazurin (HepG2 cells [2]; h = 10 µM): * (*p < 0.05 (Tables 3, 4)) | Uncoupling effect in mitostress OCR (RPTEC/TERT1 cells [5]; RPTEC/TERT1, seen at 2 and 10 µM): strong uncoupling effect | ETC-complex specificity pattern (CII/CIII) [7]: CII inhibition pattern but only at 100 µM | Uncoupling effect in mitostress OCR (HepG2 cells [8]): strong uncoupling effect

CC(C)Oc1cccc(NC(=O)c2ccccc2C(F)(F)F)c1 [Flutolanil]
Effect on MMP (RPTEC/TERT1 cells [6]): actually increased it | Effect on MMP (HepG2 cells [4]): decreased MMP, but only at the highest concentrations
